Values of other authors, collected in patent US11596166B2 (priority 2017, dated 2023).

Test system: pellagra patients
Settings: in vivo

In the case of `O=C(O)c1cccnc1` [nicotinic acid], the acute mental symptoms is listed as “disappear rapidly, often over night”, the symptoms of pellagra is listed as “disappearance of many symptoms of the disease” and the “time to blanching of acute erythematous dermal lesions with intact epithelium” value is listed as at most 48 h. The “time to cessation of nausea and vomiting, normal bowel movements” value was 24 to 72 h and the “time to subsidence of redness and swelling of tongue, gums, mouth, throat, and vagina” value was 24 to 72 h.
